Biological target: GCN2 kinase (Homo sapiens, UniProt Q9P2K8)
Experiment: GCN2 enzyme inhibition assay (Transcreener ADP2 fluorescence polarization)
Assay type: biochemical
Conditions: Enzyme activity for compounds of Formula IV; Ki(app), 280 μM ATP, 25° C.
In short: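 4 nM GCN2 + 200 μM (RS)7 + compound (0–8 μM), 10 min preinc.; start with ATP (280 μM final); 1 h, 25 °C; pH 7.5 Tris/NaCl/MgCl2/DTT; ADP FP readout; IC50, Ki(app) via tight-binding fit.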

Chain of GCN2 kinase (Q9P2K8 whole entry): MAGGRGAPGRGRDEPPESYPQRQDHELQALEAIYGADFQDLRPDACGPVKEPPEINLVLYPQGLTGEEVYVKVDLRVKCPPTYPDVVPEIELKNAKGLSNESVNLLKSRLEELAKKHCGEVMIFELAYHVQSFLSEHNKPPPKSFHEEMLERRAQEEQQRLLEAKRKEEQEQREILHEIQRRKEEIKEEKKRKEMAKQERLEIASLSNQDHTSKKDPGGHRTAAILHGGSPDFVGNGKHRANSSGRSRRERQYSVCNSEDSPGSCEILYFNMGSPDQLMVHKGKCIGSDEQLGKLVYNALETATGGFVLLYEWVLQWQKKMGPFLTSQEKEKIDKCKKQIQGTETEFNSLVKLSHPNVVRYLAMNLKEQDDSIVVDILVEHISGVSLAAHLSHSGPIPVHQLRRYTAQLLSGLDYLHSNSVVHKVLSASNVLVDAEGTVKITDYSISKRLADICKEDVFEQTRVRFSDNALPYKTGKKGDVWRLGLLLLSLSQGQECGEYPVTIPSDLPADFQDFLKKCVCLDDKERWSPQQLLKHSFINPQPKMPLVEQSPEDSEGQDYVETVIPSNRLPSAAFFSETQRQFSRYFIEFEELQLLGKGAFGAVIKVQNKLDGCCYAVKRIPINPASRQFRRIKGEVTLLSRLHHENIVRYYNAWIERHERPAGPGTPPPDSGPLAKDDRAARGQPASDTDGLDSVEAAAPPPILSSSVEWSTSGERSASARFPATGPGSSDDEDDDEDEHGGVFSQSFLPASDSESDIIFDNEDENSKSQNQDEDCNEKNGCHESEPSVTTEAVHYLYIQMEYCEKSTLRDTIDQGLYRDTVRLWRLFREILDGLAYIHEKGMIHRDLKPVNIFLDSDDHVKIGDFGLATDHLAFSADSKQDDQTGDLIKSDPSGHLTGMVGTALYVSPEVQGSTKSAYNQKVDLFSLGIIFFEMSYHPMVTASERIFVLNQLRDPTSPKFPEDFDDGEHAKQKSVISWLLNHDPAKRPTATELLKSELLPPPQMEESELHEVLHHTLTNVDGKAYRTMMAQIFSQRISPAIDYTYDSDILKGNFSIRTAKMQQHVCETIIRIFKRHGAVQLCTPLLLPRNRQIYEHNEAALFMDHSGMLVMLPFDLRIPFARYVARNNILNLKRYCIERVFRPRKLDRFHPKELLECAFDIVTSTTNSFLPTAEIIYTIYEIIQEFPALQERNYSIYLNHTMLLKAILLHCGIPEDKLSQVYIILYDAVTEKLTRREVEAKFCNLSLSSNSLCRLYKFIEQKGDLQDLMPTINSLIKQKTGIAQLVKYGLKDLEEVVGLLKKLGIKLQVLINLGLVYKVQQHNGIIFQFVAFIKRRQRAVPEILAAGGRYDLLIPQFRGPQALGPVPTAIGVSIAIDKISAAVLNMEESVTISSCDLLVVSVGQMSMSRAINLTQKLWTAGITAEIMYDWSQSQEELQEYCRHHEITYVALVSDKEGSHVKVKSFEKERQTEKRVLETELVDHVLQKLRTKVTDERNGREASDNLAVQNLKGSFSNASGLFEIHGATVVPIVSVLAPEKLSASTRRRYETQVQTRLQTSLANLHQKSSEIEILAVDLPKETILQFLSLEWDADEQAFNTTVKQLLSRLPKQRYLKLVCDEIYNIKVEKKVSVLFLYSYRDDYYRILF

Ki	SMILES
100 to 1000 nM	CC(=O)N(C)C1CCN(c2ccnc(-c3cnc4cnc(C(N)=O)cn34)n2)C1 (centres unmarked) [IV-267, 3-(4-(3-(N-Methylacetamido)pyrrolidin-1-yl)pyrimidin-2-yl)imidazo[1,2-a]pyrazine-6-carboxamide]
10 to 100 nM	CCOc1cccc(-c2cn3c(-c4nccc(N5CCN(C(C)=O)CC5)n4)cnc3cn2)c1 [IV-299, 1-(4-(2-(6-(3-Ethoxyphenyl)imidazo[1,2-a]pyrazin-3-yl)pyrimidin-4-yl)piperazin-1-yl)ethan-1-one]
100 to 1000 nM	O=C1CC2(CCN(c3ccnc(-c4cnc5cnc(C(F)(F)F)cn45)n3)C2)CN1 (centres unmarked) [IV-534, 7-(2-(6-(Trifluoromethyl)imidazo[1,2-a]pyrazin-3-yl)pyrimidin-4-yl)-2,7-diazaspiro[4.4]nonan-3-one]
100 to 1000 nM	CC1C(C(N)=O)CCCN1c1ccnc(-c2cnc3cnc(C(F)(F)F)cn23)n1 (single isomer, unassigned) [IV-498, 2-Methyl-1-(2-(6-(trifluoromethyl)imidazo[1,2-a]pyrazin-3-yl)pyrimidin-4-yl)piperidine-3-carboxamide]
100 to 1000 nM	CS(=O)(=O)CC1CCN(c2ccnc(-c3cnc4cnc(C(F)(F)F)cn34)n2)C1 (centres unmarked) [IV-604, 3-(4-(3-((methylsulfonyl)methyl)pyrrolidin-1-yl)pyrimidin-2-yl)-6-(trifluoromethyl)imidazo[1,2-a]pyrazine]
100 to 1000 nM	COCC1CN(c2ccnc(-c3cnc4cnc(C(F)(F)F)cn34)n2)CCO1 (centres unmarked) [IV-588, 2-(Methoxymethyl)-4-(2-(6-(trifluoromethyl)imidazo[1,2-a]pyrazin-3-yl)pyrimidin-4-yl)morpholine]
100 to 1000 nM	CC1CN(c2nc(-c3cnc4cnc(C(F)(F)F)cn34)ncc2F)CC(c2cn[nH]c2)O1 (single isomer, unassigned) [IV-334, 4-(5-Fluoro-2-(6-(trifluoromethyl)imidazo[1,2-a]pyrazin-3-yl)pyrimidin-4-yl)-2-methyl-6-(1H-pyrazol-4-yl)morpholine]
100 to 1000 nM	O=C1CCCN1CC1CCN(c2ccnc(-c3cnc4cnc(C(F)(F)F)cn34)n2)C1 (centres unmarked) [IV-557, 1-((1-(2-(6-(Trifluoromethyl)imidazo[1,2-a]pyrazin-3-yl)pyrimidin-4-yl)pyrrolidin-3-yl)methyl)pyrrolidin-2-one]
> 1000 nM	N[C@H]1CCCN(c2ccnc(-c3cnc4cnc(C(F)(F)F)cn34)n2)C1 [IV-736]
10 to 100 nM	FC(F)(F)c1cn2c(-c3nccc(N4CCC[C@H](c5c[nH]cn5)C4)n3)cnc2cn1 [IV-707]
100 to 1000 nM	CN1C(=O)CO[C@H]2CN(c3ccnc(-c4cnc5cnc(C(F)(F)F)cn45)n3)C[C@@H]21 (single isomer, unassigned) [IV-551]
100 to 1000 nM	OC1CCN(c2ccnc(-c3cnc4cnc(C(F)(F)F)cn34)n2)C1 (centres unmarked) [IV-433, 1-(2-(6-(Trifluoromethyl)imidazo[1,2-a]pyrazin-3-yl)pyrimidin-4-yl)pyrrolidin-3-ol]
> 1000 nM	O=C(Nc1cn[nH]c1)[C@@H]1CCCN(c2ccnc(-c3cnc4cnc(C(F)(F)F)cn34)n2)C1 [IV-725]
< 10 nM	CC1C(c2cn[nH]c2)OCCN1c1ccnc(-c2cnc3cnc(C#N)cn23)n1 (single isomer, unassigned) [IV-290, 3-(4-(3-Methyl-2-(1H-pyrazol-4-yl)morpholino)pyrimidin-2-yl)imidazo[1,2-a]pyrazine-6-carbonitrile]
10 to 100 nM	CC1CN(c2nccc(-c3cnc4cnc(Br)cn34)n2)C(C)C(c2cn[nH]c2)N1 (centres unmarked) [IV-383, 6-Bromo-3-(2-(2,5-dimethyl-3-(1H-pyrazol-4-yl)piperazin-1-yl)pyrimidin-4-yl)imidazo[1,2-a]pyrazine]
100 to 1000 nM	NC(=O)c1cn2c(-c3nccc(N4CCN5CCCCC5C4)n3)cnc2cn1 (centres unmarked) [IV-265, 3-(4-(Octahydro-2H-pyrido[1,2-a]pyrazin-2-yl)pyrimidin-2-yl)imidazo[1,2-a]pyrazine-6-carboxamide]
10 to 100 nM	CC(C)C1CN(c2ccnc(-c3cnc4cnc(C(F)(F)F)cn34)n2)C(C)C(c2cn[nH]c2)N1 (centres unmarked) [IV-330, 3-(4-(5-Isopropyl-2-methyl-3-(1H-pyrazol-4-yl)piperazin-1-yl)pyrimidin-2-yl)-6-(trifluoromethyl)imidazo[1,2-a]pyrazine]
100 to 1000 nM	FC(F)(F)c1cn2c(-c3nccc(N4CCCC(c5ncon5)C4)n3)cnc2cn1 (centres unmarked) [IV-321, 3-(1-(2-(6-(Trifluoromethyl)imidazo[1,2-a]pyrazin-3-yl)pyrimidin-4-yl)piperidin-3-yl)-1,2,4-oxadiazole]
100 to 1000 nM	CC1COC(CO)CN1c1ccnc(-c2cnc3cnc(C(F)(F)F)cn23)n1 (centres unmarked) [IV-613, (5-Methyl-4-(2-(6-(trifluoromethyl)imidazo[1,2-a]pyrazin-3-yl)pyrimidin-4-yl)morpholin-2-yl)methanol]
10 to 100 nM	CC1CN(c2nc(-c3cnc4cnc(C(F)(F)F)cn34)ncc2F)C(C)C(c2cn[nH]c2)N1 (single isomer, unassigned) [IV-324, 3-(4-(2,5-Dimethyl-3-(1H-pyrazol-4-yl)piperazin-1-yl)-5-fluoropyrimidin-2-yl)-6-(trifluoromethyl)imidazo[1,2-a]pyrazine]
100 to 1000 nM	FC(F)(F)c1cn2c(-c3nccc(N4CCC(N5CCOCC5)C4)n3)cnc2cn1 (centres unmarked) [IV-553, 4-(1-(2-(6-(Trifluoromethyl)imidazo[1,2-a]pyrazin-3-yl)pyrimidin-4-yl)pyrrolidin-3-yl)morpholine]
100 to 1000 nM	CC1C(c2cn[nH]c2)OCCN1c1ccnc(-c2cnc3cnc(Cl)cn23)n1 (single isomer, unassigned) [IV-316, 4-(2-(6-Chloroimidazo[1,2-a]pyrazin-3-yl)pyrimidin-4-yl)-3-methyl-2-(1H-pyrazol-4-yl)morpholine]
100 to 1000 nM	c1cc(-c2ccc3cc[nH]c3c2)nc(-c2cnc3cnccn23)c1 [IV-1, 3-(6-(1H-Indol-6-yl)pyridin-2-yl)imidazo[1,2-a]pyrazine]
< 10 nM	CC1CC(c2cn[nH]c2)C(C)N(c2ccnc(-c3cnc4cnc(C(F)(F)F)cn34)n2)C1 (centres unmarked) [IV-304, 3-(4-(2,5-Dimethyl-3-(1H-pyrazol-4-yl)piperidin-1-yl)pyrimidin-2-yl)-6-(trifluoromethyl)imidazo[1,2-a]pyrazine]
> 1000 nM	O=C(N[C@H]1CCCN(c2ccnc(-c3cnc4cnc(C(F)(F)F)cn34)n2)C1)c1c[nH]cn1 [IV-751]
< 10 nM	CCN1C(C)CN(c2ccnc(-c3cnc4cnc(C(F)(F)F)cn34)n2)C(C)C1c1cn[nH]c1 (centres unmarked) [IV-292, 3-(4-(4-Ethyl-2,5-dimethyl-3-(1H-pyrazol-4-yl)piperazin-1-yl)pyrimidin-2-yl)-6-(trifluoromethyl)imidazo[1,2-a]pyrazine]
10 to 100 nM	CC(=O)N1CCN(c2ccnc(-c3cnc4cnc(-c5cc[nH]n5)cn34)n2)CC1 [IV-203, 1-(4-(2-(6-(1H-Pyrazol-3-yl)imidazo[1,2-a]pyrazin-3-yl)pyrimidin-4-yl)piperazin-1-yl)ethan-1-one]
10 to 100 nM	CSCC1CCN(c2ccnc(-c3cnc4cnc(C(F)(F)F)cn34)n2)C1 (centres unmarked) [IV-594, 3-(4-(3-((Methylthio)methyl)pyrrolidin-1-yl)pyrimidin-2-yl)-6-(trifluoromethyl)imidazo[1,2-a]pyrazine]
10 to 100 nM	FC(F)(F)c1cn2c(-c3nccc(N4CCNC(c5cn[nH]c5)C4)n3)cnc2cn1 (single isomer, unassigned) [IV-232, 3-(4-(3-(1H-Pyrazol-4-yl)piperazin-1-yl)pyrimidin-2-yl)-6-(trifluoromethyl)imidazo[1,2-a]pyrazine]
100 to 1000 nM	NC(=O)c1cn2c(-c3cccc(N4CCN5C(=O)NCC5C4)n3)cnc2cn1 (centres unmarked) [IV-227, 3-(6-(3-Oxohexahydroimidazo[1,5-a]pyrazin-7(1H)-yl)pyridin-2-yl)imidazo[1,2-a]pyrazine-6-carboxamide]

Same assay, conditions: compounds of Formula II; 280 μM ATP, 4 nM GCN2 kinase

Ki	SMILES
10 to 1000 nM	CC(NS(C)(=O)=O)C1CCCN(c2cc(-c3cnc4ccc(C(F)F)nn34)ncn2)C1 (centres unmarked) [II-620, N-(1-(1-(6-(6-(Difluoromethyl)imidazo[1,2-b]pyridazin-3-yl)pyrimidin-4-yl)piperidin-3-yl)ethyl)methanesulfonamide]
< 10 nM	FC(F)c1ccc2ncc(-c3ccnc(N4CCCC(c5cn[nH]c5)C4)c3)n2n1 (centres unmarked) [II-750]
< 10 nM	C[C@@H]1C[C@H](CO)[C@H](C)N(c2cc(-c3cnc4ccc(C(F)F)nn34)ncn2)C1 (single isomer, unassigned) [II-585]
< 10 nM	CC1CN(c2cc(-c3cnc4ccc(C(F)F)nn34)ncn2)CC(CO)C1(F)F (centres unmarked) [II-623, (1-(6-(6-(Difluoromethyl)imidazo[1,2-b]pyridazin-3-yl)pyrimidin-4-yl)-4,4-difluoro-5-methylpiperidin-3-yl)methanol]
10 to 1000 nM	N#CC1CN(c2cc(-c3cnc4ccc(C(F)(F)F)nn34)ncn2)CCO1 (centres unmarked) [II-533, 4-(6-(6-(Trifluoromethyl)imidazo[1,2-b]pyridazin-3-yl)pyrimidin-4-yl)morpholine-2-carbonitrile]
10 to 1000 nM	C[C@H]1C[C@@H](CS(C)(=N)=O)[C@@H](C)N(c2cc(-c3cnc4ccc(C(F)F)nn34)ncn2)C1 (stereo partly drawn) [II-604, (((2R,3R,5S)-1-(6-(6-(Difluoromethyl)imidazo[1,2-b]pyridazin-3-yl)pyrimidin-4-yl)-2,5-dimethylpiperidin-3-yl)methyl)(imino)(methyl)-λ^6-sulfanone]
10 to 1000 nM	CCS(C)(=O)=NC1CC(C)CN(c2cc(-c3cnc4ccc(C(F)F)nn34)ncn2)C1 (single isomer, unassigned) [II-641, ((1-(6-(6-(Difluoromethyl)imidazo[1,2-b]pyridazin-3-yl)pyrimidin-4-yl)-5-methylpiperidin-3-yl)imino)(ethyl)(methyl)-λ^6-sulfanone]

Same assay, conditions: compounds of Formula V; 280 μM ATP, 4 nM GCN2 kinase

Ki	SMILES
100 to 1000 nM	CS(C)(=O)=NC1CCCN(c2ccnc(-c3cnc4sc(C(F)(F)F)cn34)n2)C1 (centres unmarked) [Compound V-9, Dimethyl((1-(2-(2-(trifluoromethyl)imidazo[2,1-b]thiazol-5-yl)pyrimidin-4-yl)piperidin-3-yl)imino)-λ^6-sulfanone]
